Measured values published in patent publication US11726083B2, “Method for testing drug response of cardiomyocytes” (Myoridge Co. Ltd., priority 2017, dated 2023).
Read-outs that look alike come from different tables or passages of the source.

Tested on: cardiomyocytes prepared by inducing differentiation of a human iPS cell line (253G1)
Conditions: for rate of change in heart rate / rate of change in Ca^2+ duration: 100% = no change
[1] = sample 2A: 100 nM, culture medium not containing hemoglobin, liquid-surface distance 6.67 mm
[2] = sample 2C: 100 nM, 0.5 mass % hemoglobin, liquid-surface distance 6.67 mm
[3] = sample 2D: 1000 nM, 0.5 mass % hemoglobin, liquid-surface distance 6.67 mm
[4] = sample 2E: 100 nM, 1.0 mass % hemoglobin, liquid-surface distance 6.67 mm
[5] = sample 2F: 1000 nM, 1.0 mass % hemoglobin, liquid-surface distance 6.67 mm
[6] = sample 3A: 100 nM, liquid-surface distance 8.33 mm
[7] = sample 3C: 100 nM, liquid-surface distance 6.67 mm
[8] = sample 3E: 100 nM, liquid-surface distance 5.00 mm
[9] = sample 3G: 100 nM, liquid-surface distance 3.33 mm
[10] = sample 3H: 1000 nM, liquid-surface distance 3.33 mm
[11] = sample 3I: 100 nM, liquid-surface distance 1.67 mm
[12] = sample 3J: 1000 nM, liquid-surface distance 1.67 mm
[13] = sample 4A: 100 nM, control container (polystyrene), liquid-surface distance 6.67 mm
[14] = sample 4C: 100 nM, oxygen-permeable container (VECELL 96-well plate), liquid-surface distance 6.67 mm
[15] = sample 5M: 300 μM, no hemoglobin, liquid-surface distance 6.67 mm
[16] = sample 5N: 300 μM, 2.0% by mass of hemoglobin, liquid-surface distance 1.0 mm
[17] = sample 5P: 500 μM, 2.0% by mass of hemoglobin, liquid-surface distance 1.0 mm

Q: Which results are given for Cc1cccc(CCN2CCC(C(=O)c3ccc(NS(C)(=O)=O)cc3)CC2)n1 [E-4031]?
A: pulsation (pulsation arrest) (sample 5E: 0.1 μM, no hemoglobin, liquid-surface distance 6.67 mm): did not stop; pulsation (pulsation arrest) (sample 5F: 0.1 μM, 0.5% by mass of hemoglobin, liquid-surface distance 1.67 mm): did not stop; pulsation (pulsation arrest) (sample 5G: 0.3 μM, no hemoglobin, liquid-surface distance 6.67 mm): stopped at a high frequency; pulsation (pulsation arrest) (sample 5H: 0.3 μM, 0.5% by mass of hemoglobin, liquid-surface distance 1.67 mm): did not stop

Q: With CC(C)NCC(O)c1ccc(O)c(O)c1 (stereo not shown) [isoproterenol] as the compound, how does the “expected drug response (tachycardic response)” value [1] read?
A: Its value is “detected”.

Q: What about the “pulsation (pulsation arrest)” value [1] of the same compound?
A: The value was “did not stop”.

Q: And the “pulsation (pulsation arrest)” value (sample 2B: 1000 nM, culture medium not containing hemoglobin, liquid-surface distance 6.67 mm)?
A: Its value is “stopped at a high frequency”.

Q: And the expected drug response [2]?
A: The expected drug response was “detected”.

Q: And the “pulsation (pulsation arrest)” value [2]?
A: Its value is “did not stop”.

Q: And the expected drug response [3]?
A: Its expected drug response is “detected”.

Q: What about the “pulsation (pulsation arrest)” value [3] of the same compound?
A: The value was “did not stop at all”.

Q: What about the expected drug response [4] of the same compound?
A: Its expected drug response is “detected”.

Q: And the “pulsation (pulsation arrest)” value [4]?
A: Its value is “did not stop”.

Q: And the expected drug response [5]?
A: Its expected drug response is “detected”.

Q: And the “pulsation (pulsation arrest)” value [5]?
A: Its value is “did not stop at all”.

Q: And the “expected drug response (tachycardic response)” value [6]?
A: The value was “detected”.

Q: What about the “pulsation (pulsation arrest)” value [6] of the same compound?
A: The value was “did not stop”.

Q: What about the “pulsation (pulsation arrest)” value (sample 3B: 1000 nM, liquid-surface distance 8.33 mm) of the same compound?
A: The value was “stopped at a high frequency”.

Q: What about the expected drug response [7] of the same compound?
A: The expected drug response was “detected”.

Q: What about the “pulsation (pulsation arrest)” value [7] of the same compound?
A: Its value is “did not stop”.

Q: What about the “pulsation (pulsation arrest)” value (sample 3D: 1000 nM, liquid-surface distance 6.67 mm) of the same compound?
A: The value was “stopped at a high frequency”.

Q: What about the expected drug response [8] of the same compound?
A: The expected drug response was “detected”.

Q: What about the “pulsation (pulsation arrest)” value [8] of the same compound?
A: The value was “did not stop”.

Q: What about the “frequency of the occurrence of the pulsation arrest” value (sample 3F: 1000 nM, liquid-surface distance 5.00 mm) of the same compound?
A: Its value is “about 50%”.

Q: And the expected drug response [9]?
A: Its expected drug response is “detected”.

Q: What about the “pulsation (pulsation arrest)” value [9] of the same compound?
A: The value was “did not stop”.

Q: And the expected drug response [10]?
A: Its expected drug response is “detected”.

Q: What about the “pulsation (pulsation arrest)” value [10] of the same compound?
A: The value was “hardly stopped”.

Q: What about the expected drug response [11] of the same compound?
A: Its expected drug response is “detected”.

Q: What about the “pulsation (pulsation arrest)” value [11] of the same compound?
A: The value was “did not stop”.

Q: What about the expected drug response [12] of the same compound?
A: The expected drug response was “detected”.

Q: And the “pulsation (pulsation arrest)” value [12]?
A: Its value is “did not stop at all”.

Q: And the “expected drug response (tachycardic response)” value [13]?
A: The value was “detected”.

Q: And the “pulsation (pulsation arrest)” value [13]?
A: The value was “did not stop”.

Q: What about the “pulsation (pulsation arrest)” value (sample 4B: 1000 nM, control container (polystyrene), liquid-surface distance 6.67 mm) of the same compound?
A: Its value is “stopped at a high frequency”.

Q: What about the expected drug response [14] of the same compound?
A: Its expected drug response is “detected”.

Q: What about the “pulsation (pulsation arrest)” value [14] of the same compound?
A: Its value is “did not stop”.

Q: What about the “pulsation (pulsation arrest)” value (sample 4D: 1000 nM, oxygen-permeable container (VECELL 96-well plate), liquid-surface distance 6.67 mm) of the same compound?
A: The value was “stopped only at a low frequency”.

Q: Cc1[nH]c(=O)c(C#N)cc1-c1ccncc1 [milrinone] was tested. Which “expected drug response (tachycardic response)” value [15] did it give?
A: The value was “not detected”.

Q: And the “pulsation (pulsation arrest)” value [15]?
A: The value was “did not stop”.

Q: And the “rate of change in heart rate” value [15]?
A: Its value is 79%.

Q: And the expected drug response [16]?
A: Its expected drug response is “detected”.

Q: And the “pulsation (pulsation arrest)” value [16]?
A: The value was “did not stop”.

Q: And the “rate of change in heart rate” value [16]?
A: Its value is 118%.

Q: What about the “pulsation (pulsation arrest)” value (sample 5O: 500 μM, no hemoglobin, liquid-surface distance 6.67 mm) of the same compound?
A: The value was “stopped at a high frequency”.

Q: What about the “expected drug response (tachycardic response)” value [17] of the same compound?
A: The value was “detected”.

Q: And the “pulsation (pulsation arrest)” value [17]?
A: Its value is “did not stop”.

Q: And the “rate of change in heart rate” value [17]?
A: The value was 154%.

Q: With CC(C)(C)c1ccc(C(O)CCCN2CCC(C(O)(c3ccccc3)c3ccccc3)CC2)cc1 (stereo not shown) [terfenadine] as the compound, how does the “pulsation (pulsation arrest)” value (sample 5I: 0.1 μM, no hemoglobin, liquid-surface distance 6.67 mm) read?
A: The value was “did not stop”.

Q: And the “pulsation (pulsation arrest)” value (sample 5J: 0.1 μM, 0.5% by mass of hemoglobin, liquid-surface distance 1.67 mm)?
A: Its value is “did not stop”.

Q: And the “pulsation (pulsation arrest)” value (sample 5K: 0.7 μM, no hemoglobin, liquid-surface distance 6.67 mm)?
A: The value was “stopped at a high frequency”.

Q: And the “pulsation (pulsation arrest)” value (sample 5L: 0.7 μM, 0.5% by mass of hemoglobin, liquid-surface distance 1.67 mm)?
A: Its value is “did not stop”.

Q: What about the “rate of change in Ca^2+ duration” value (sample 6A: 0.3 μM, 0.5% by mass of hemoglobin, liquid-surface distance 1.67 mm) of the same compound?
A: The value was “about 135%”.

Q: And the “rate of change in Ca^2+ duration” value (sample 6B: 0.5 μM, 0.5% by mass of hemoglobin, liquid-surface distance 1.67 mm)?
A: The value was “about 170%”.

Q: How did the “occurrence of the pulsation arrest of the cardiomyocytes during the drug response testing” value (0.5 or 1.0 mass % hemoglobin added to the culture medium, isoproterenol 100/1000 nM, liquid-surface distance 6.67 mm (FIG. 3)) turn out when “hemoglobin: bovine hemoglobin (Nacalai tesque 17553-92), oxygen carrier added to the culture medium” was run?
A: The value was “suppressed”.
